Measurements published in PubChem BioAssay AID1963836 (Molecular Pharmacology Branch, DTP, NCI, 2024).

Test system: 857933-349-R-J2-PDC complex spheroid viability
Assay: Anticancer human tumor 857933-349-R-J2-PDC patient-derived colon adenocarcinoma cell line growth inhibition [POLQ]
Settings: for IC50: curve of first compound; for viability, T/C: stronger effect = lower value
How it was run: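 Patient-derived tumour cells were co-cultured with HUVEC and mesenchymal stem cells as multicellular spheroids at 37 °C. They were treated with POLQ inhibitors (novobiocin, ART-558, RP6685) alone or combined with other agents. Top concentrations were at or near clinical Cmax (otherwise 10 microM; SN-38 at 1 microM), decreasing in half-log steps.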

[1] = second compound 0.0316 µM, first compound 0.0316 µM
[2] = second compound 0.0316 µM, first compound 0.1 µM
[3] = second compound 0.0316 µM, first compound 0.316 µM
[4] = second compound 0.0316 µM, first compound 1 µM
[5] = second compound 0.0316 µM, first compound 3.16 µM
[6] = second compound 0.0316 µM, first compound 10 µM
[7] = second compound 0.1 µM, first compound 0.0316 µM
[8] = second compound 0.1 µM, first compound 0.1 µM
[9] = second compound 0.1 µM, first compound 0.316 µM
[10] = second compound 0.1 µM, first compound 1 µM
[11] = second compound 0.1 µM, first compound 3.16 µM
[12] = second compound 0.1 µM, first compound 10 µM
[13] = second compound 0.316 µM, first compound 0.0316 µM
[14] = second compound 0.316 µM, first compound 0.1 µM
[15] = second compound 0.316 µM, first compound 0.316 µM
[16] = second compound 0.316 µM, first compound 1 µM
[17] = second compound 0.316 µM, first compound 3.16 µM
[18] = second compound 0.316 µM, first compound 10 µM
[19] = second compound 1 µM, first compound 0.0316 µM
[20] = second compound 1 µM, first compound 0.1 µM
[21] = second compound 1 µM, first compound 0.316 µM
[22] = second compound 1 µM, first compound 1 µM
[23] = second compound 1 µM, first compound 3.16 µM
[24] = second compound 1 µM, first compound 10 µM
[25] = second compound 3.16 µM, first compound 0.0316 µM
[26] = second compound 3.16 µM, first compound 0.1 µM
[27] = second compound 3.16 µM, first compound 0.316 µM
[28] = second compound 3.16 µM, first compound 1 µM
[29] = second compound 3.16 µM, first compound 3.16 µM
[30] = second compound 3.16 µM, first compound 10 µM
[31] = second compound 10 µM, first compound 0.0316 µM
[32] = second compound 10 µM, first compound 0.1 µM
[33] = second compound 10 µM, first compound 0.316 µM
[34] = second compound 10 µM, first compound 1 µM
[35] = second compound 10 µM, first compound 3.16 µM
[36] = second compound 10 µM, first compound 10 µM
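Also: spheroids exposed to compounds for seven days before readout.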

SMILES: C#Cc1c(F)ccc2cc(O)cc(-c3ncc4c(N5CC6CCC(C5)N6)nc(OCC56CCCN5CC(F)C6)nc4c3F)c12 (stereo not given) + COC1C(OC(N)=O)C(O)C(Oc2ccc3c(O)c(NC(=O)c4ccc(O)c(CC=C(C)C)c4)c(=O)oc3c2C)OC1(C)C
- IC50 (second compound 0.0316 µM): > 10 µM
- IC50 (second compound 0.1 µM): > 10 µM
- IC50 (second compound 0.316 µM): > 10 µM
- IC50 (second compound 1 µM): > 10 µM
- IC50 (second compound 3.16 µM): > 10 µM
- IC50 (second compound 10 µM): > 10 µM
- viability, T/C [1]: 106%
- viability, T/C [2]: 94.9%
- viability, T/C [3]: 92.3%
- viability, T/C [4]: 79.2%
- viability, T/C [5]: 70.8%
- viability, T/C [6]: 99.2%
- viability, T/C [7]: 102%
- viability, T/C [8]: 102%
- viability, T/C [9]: 94%
- viability, T/C [10]: 80.7%
- viability, T/C [11]: 86.6%
- viability, T/C [12]: 92.2%
- viability, T/C [13]: 98%
- viability, T/C [14]: 96.7%
- viability, T/C [15]: 81.2%
- viability, T/C [16]: 88.6%
- viability, T/C [17]: 84.9%
- viability, T/C [18]: 78.1%
- viability, T/C [19]: 114%
- viability, T/C [20]: 95.1%
- viability, T/C [21]: 79.3%
- viability, T/C [22]: 82.3%
- viability, T/C [23]: 95.5%
- viability, T/C [24]: 90.8%
- viability, T/C [25]: 96.4%
- viability, T/C [26]: 98.6%
- viability, T/C [27]: 96%
- viability, T/C [28]: 119%
- viability, T/C [29]: 88.1%
- viability, T/C [30]: 94.5%
- viability, T/C [31]: 98.3%
- viability, T/C [32]: 89.8%
- viability, T/C [33]: 93%
- viability, T/C [34]: 77.6%
- viability, T/C [35]: 85.4%
- viability, T/C [36]: 104%

SMILES: C=CC(=O)N1CCN(c2nc(=O)n(-c3c(C)ccnc3C(C)C)c3nc(-c4c(O)cccc4F)c(F)cc23)C(C)C1 (stereo not given) + COC1C(OC(N)=O)C(O)C(Oc2ccc3c(O)c(NC(=O)c4ccc(O)c(CC=C(C)C)c4)c(=O)oc3c2C)OC1(C)C
- IC50 (second compound 0.0316 µM): > 10 µM
- IC50 (second compound 0.1 µM): > 10 µM
- IC50 (second compound 0.316 µM): > 10 µM
- IC50 (second compound 1 µM): > 10 µM
- IC50 (second compound 3.16 µM): > 10 µM
- IC50 (second compound 10 µM): > 10 µM
- viability, T/C [1]: 105%
- viability, T/C [2]: 104%
- viability, T/C [3]: 103%
- viability, T/C [4]: 107%
- viability, T/C [5]: 88.5%
- viability, T/C [6]: 102%
- viability, T/C [7]: 94.4%
- viability, T/C [8]: 88.7%
- viability, T/C [9]: 79.5%
- viability, T/C [10]: 110%
- viability, T/C [11]: 104%
- viability, T/C [12]: 77%
- viability, T/C [13]: 96.1%
- viability, T/C [14]: 110%
- viability, T/C [15]: 102%
- viability, T/C [16]: 98.2%
- viability, T/C [17]: 100%
- viability, T/C [18]: 74.9%
- viability, T/C [19]: 101%
- viability, T/C [20]: 108%
- viability, T/C [21]: 81.3%
- viability, T/C [22]: 109%
- viability, T/C [23]: 99.2%
- viability, T/C [24]: 93.3%
- viability, T/C [25]: 98.1%
- viability, T/C [26]: 116%
- viability, T/C [27]: 126%
- viability, T/C [28]: 99.3%
- viability, T/C [29]: 111%
- viability, T/C [30]: 71.4%
- viability, T/C [31]: 104%
- viability, T/C [32]: 73%
- viability, T/C [33]: 118%
- viability, T/C [34]: 97.4%
- viability, T/C [35]: 82.2%
- viability, T/C [36]: 99.8%

SMILES: CCc1cc2c(N3CCc4c(cc(Cn5ccnc5)cc4-c4cn(C)nc4C(F)(F)F)C3=O)cc(C)nc2c(OC)n1 + COC1C(OC(N)=O)C(O)C(Oc2ccc3c(O)c(NC(=O)c4ccc(O)c(CC=C(C)C)c4)c(=O)oc3c2C)OC1(C)C
- IC50 (second compound 0.0316 µM): > 10 µM
- IC50 (second compound 0.1 µM): > 10 µM
- IC50 (second compound 0.316 µM): > 10 µM
- IC50 (second compound 1 µM): > 10 µM
- IC50 (second compound 3.16 µM): > 10 µM
- IC50 (second compound 10 µM): > 10 µM
- viability, T/C [1]: 116%
- viability, T/C [2]: 80.3%
- viability, T/C [3]: 72.3%
- viability, T/C [4]: 61.8%
- viability, T/C [5]: 68.5%
- viability, T/C [6]: 56.2%
- viability, T/C [7]: 97.5%
- viability, T/C [8]: 77.6%
- viability, T/C [9]: 95.5%
- viability, T/C [10]: 58.6%
- viability, T/C [11]: 68.2%
- viability, T/C [12]: 52.9%
- viability, T/C [13]: 117%
- viability, T/C [14]: 88.3%
- viability, T/C [15]: 75.3%
- viability, T/C [16]: 61.7%
- viability, T/C [17]: 82.9%
- viability, T/C [18]: 67.5%
- viability, T/C [19]: 102%
- viability, T/C [20]: 95.3%
- viability, T/C [21]: 78.8%
- viability, T/C [22]: 60.2%
- viability, T/C [23]: 52.8%
- viability, T/C [24]: 57.7%
- viability, T/C [25]: 77.7%
- viability, T/C [26]: 76.1%
- viability, T/C [27]: 89.7%
- viability, T/C [28]: 80.1%
- viability, T/C [29]: 57.5%
- viability, T/C [30]: 68.3%
- viability, T/C [31]: 71.3%
- viability, T/C [32]: 86.3%
- viability, T/C [33]: 72.7%
- viability, T/C [34]: 71.3%
- viability, T/C [35]: 91.8%
- viability, T/C [36]: 58%

SMILES: CCc1cc2c(N3CCc4c(cc(Cn5ccnc5)cc4-c4cn(C)nc4C(F)(F)F)C3=O)ccnc2c(OC)n1 + COC1C(OC(N)=O)C(O)C(Oc2ccc3c(O)c(NC(=O)c4ccc(O)c(CC=C(C)C)c4)c(=O)oc3c2C)OC1(C)C
- IC50 (second compound 0.0316 µM): > 10 µM
- IC50 (second compound 0.1 µM): 7.52 µM
- IC50 (second compound 0.316 µM): > 10 µM
- IC50 (second compound 1 µM): > 10 µM
- IC50 (second compound 3.16 µM): > 10 µM
- IC50 (second compound 10 µM): > 10 µM
- viability, T/C [1]: 88.9%
- viability, T/C [2]: 93.4%
- viability, T/C [3]: 106%
- viability, T/C [4]: 75.6%
- viability, T/C [5]: 66%
- viability, T/C [6]: 51.8%
- viability, T/C [7]: 103%
- viability, T/C [8]: 93.1%
- viability, T/C [9]: 80.2%
- viability, T/C [10]: 84.2%
- viability, T/C [11]: 61%
- viability, T/C [12]: 44.6%
- viability, T/C [13]: 90.4%
- viability, T/C [14]: 104%
- viability, T/C [15]: 73.4%
- viability, T/C [16]: 71.5%
- viability, T/C [17]: 65.4%
- viability, T/C [18]: 58.4%
- viability, T/C [19]: 90%
- viability, T/C [20]: 79%
- viability, T/C [21]: 74.9%
- viability, T/C [22]: 69.8%
- viability, T/C [23]: 61.3%
- viability, T/C [24]: 59.5%
- viability, T/C [25]: 96.3%
- viability, T/C [26]: 98.2%
- viability, T/C [27]: 82.7%
- viability, T/C [28]: 73.6%
- viability, T/C [29]: 75.3%
- viability, T/C [30]: 58.2%
- viability, T/C [31]: 99.6%
- viability, T/C [32]: 94.5%
- viability, T/C [33]: 75.6%
- viability, T/C [34]: 92.3%
- viability, T/C [35]: 59.7%
- viability, T/C [36]: 62.8%

SMILES: COc1cc2cc(C(=O)CCC(=O)O)sc2cc1OC + COC1C(OC(N)=O)C(O)C(Oc2ccc3c(O)c(NC(=O)c4ccc(O)c(CC=C(C)C)c4)c(=O)oc3c2C)OC1(C)C
- IC50 (second compound 0.0316 µM): > 10 µM
- IC50 (second compound 0.1 µM): > 10 µM
- IC50 (second compound 0.316 µM): > 10 µM
- IC50 (second compound 1 µM): > 10 µM
- IC50 (second compound 3.16 µM): > 10 µM
- IC50 (second compound 10 µM): > 10 µM
- viability, T/C [1]: 82%
- viability, T/C [2]: 98.3%
- viability, T/C [3]: 79.9%
- viability, T/C [4]: 79%
- viability, T/C [5]: 106%
- viability, T/C [6]: 93.8%
- viability, T/C [7]: 91.4%
- viability, T/C [8]: 95.5%
- viability, T/C [9]: 98.1%
- viability, T/C [10]: 79.2%
- viability, T/C [11]: 92.5%
- viability, T/C [12]: 111%
- viability, T/C [13]: 104%
- viability, T/C [14]: 102%
- viability, T/C [15]: 84%
- viability, T/C [16]: 97.2%
- viability, T/C [17]: 84.4%
- viability, T/C [18]: 79.7%
- viability, T/C [19]: 110%
- viability, T/C [20]: 112%
- viability, T/C [21]: 103%
- viability, T/C [22]: 94.2%
- viability, T/C [23]: 110%
- viability, T/C [24]: 122%
- viability, T/C [25]: 90.6%
- viability, T/C [26]: 91.1%
- viability, T/C [27]: 86.6%
- viability, T/C [28]: 77.4%
- viability, T/C [29]: 84.1%
- viability, T/C [30]: 90%
- viability, T/C [31]: 76.4%
- viability, T/C [32]: 98.1%
- viability, T/C [33]: 108%
- viability, T/C [34]: 116%
- viability, T/C [35]: 112%
- viability, T/C [36]: 91.9%
